# In patent publication US8486947B2, “Treatment of Parkinson's disease, obstructive sleep apnea, dementia with Lewy bodies, vascular dementia with non-imidazole alkylamines histamine H3-receptor ligands” (Bioprojet, priority 2005, dated 2013):
# Assays:
# [1] = system: humans suffering from Parkinson; test: Combination with an anti-parkinson drug in humans suffering from Parkinson; type: in vivo, human; settings: 40 mg p.o.
# Description: (§1) Combinations of a compound of the invention and a anti-parkinson drug were tested on rats and humans suffering from Parkinson.
# [2] = system: acetylcholine concentration in brain; test: Rat brain microdialysis of acetylcholine, combination with acetylcholinesterase inhibitors; type: in vivo; settings: rats, co-administered with donepezil, rivastigmine or gallanthamine
# Description: (§2) Generally, dementia with Lewi bodies is treated with acetylcholinesterase inhibitors such as donepezil, rivastigmine or gallanthamine. These agents increase the acetylcholine concentration in the is brain extracellular space. Combinations of a compound of the invention and one of these agents were tested on rats. The drug was selected from donepezil, rivastigmine or gallanthamine and administered in combination with 3-(4-Chlorophenyl)propyl 3-piperidinopropyl ether in rats.
# [3] = system: patients with a diagnostic of OSA; test: Single-blind trial against placebo in male patients with obstructive sleep apnea, 3-day treatment; type: in vivo, human; settings: 40 mg oral once a day, 3 days
# Description: In a group of 10 male patients with a diagnostic of OSA, confirmed by polysomnography performed during a night in an hospital setting, an Epswoth score above 12 and a body mass index of less than 35, the effect of a 3-day treatment with BF 2.649 (3-(4-Chlorophenyl)propyl 3-piperidinopropyl ether) was assessed in a single-blind trial against placebo, at a fixed oral dose of 40 mg once a day.
# In addition the nocturnal sleep duration was not decreased and its quality was improved. This clinical trial establishes for the first time the utility of H3 antagonists/inverse agonists in OSA.
# rats = test: Tolerability of the combinations with acetylcholinesterase inhibitors in rats; type: in vivo, rat; settings: combination with donepezil, rivastigmine or gallanthamine
# Description: as §2
# [4] = system: rats suffering from Parkinson; test: Combination with an anti-parkinson drug in rats; type: in vivo, rat
# Description: as §1
# [5] = system: MPTP-treated cats (experimentally induced parkinsonism); test: Sleep-wakefulness patterns by electromyographic and EEG recordings in MPTP-treated parkinsonian cats; type: in vivo, cat; settings: oral dose of 10 mg/kg
# Description: As assessed by electromyographic and EEG recordings, treatment with BF 2.-649 (3-(4-Chlorophenyl)propyl 3-piperidinopropyl ether), a potent and selective H3-antagonist, at an oral dose of 10 mg/kg, normalized these sleep-wakefulness patterns.
# [6] = system: patients suffering from obstructive sleep apnea (OSA); test: Two clinical studies (single-blinded or double-blinded against placebo, polysomnographical test) in OSA patients; type: in vivo, human; settings: 40 mg p.o. once a day during 3 and 7 days
# Description: Two clinical studies were conducted on patients suffering from obstructive sleep apnea (OSA), in a single-blinded or double-blinded trial against placebo with a polysomnographical test on patients.
# In both studies, patients were administered with 3-(4-Chlorophenyl)propyl 3-piperidinopropyl ether at 40 mg p.o. once a day during 3 and 7 days.
# In both studies, daytime sleepiness was improved in accordance with the Epworth test or according to the frequency of naps or daytime sleepiness occurrences. The average daytime sleepiness could be reduced by up to 50%.
# histamine H3-receptor = settings: literature reports; cited from earlier work
# PD patients = settings: cited from earlier work
# [7] = system: Parkinsonian rat (unilateral 6-hydroxydopamine); settings: 6-hydroxydopamine rat, co-administered with levodopa; cited from earlier work
# [8] = combination with anti-parkinson drug
# [9] = combination with ropinirole, lisuride, bromocriptine, levodopa or pramiprexole
smiles,measurement,setting,value
"Clc1ccc(CCCOCCCN2CCCCC2)cc1 [BF 2.649, 3-(4-Chlorophenyl)propyl 3-piperidinopropyl ether]",dose of the anti-parkinson drug needed,[1]; [8],allowed lower doses
same,motor symptoms,[1]; [9],significantly improved
same,increase of the acetylcholine concentration in brain (microdialysis),[2],potentialised
same,nocturnal sleep duration,[3],not decreased
same,nocturnal sleep quality,[3],improved
same,occurrence of diurnal sleep episodes,[3],total prevention
same,decrease in the number of diurnal somnolence episodes,[3]; all subjects,more than 60%
same,"tolerability, in particular cardiovascular parameters",rats,well tolerated
same,dose of the anti-parkinson drug needed,[4]; [8],allowed lower doses
same,motor symptoms,[4]; [9],significantly improved
same,long periods of sleep (model of excessive daytime sleepiness),[5],largely suppressed
same,sleep-wakefulness patterns,[5]; EMG and EEG recordings,normalized
same,"daytime sleepiness (Epworth test, frequency of naps or daytime sleepiness occurrences)",[6],improved
same,reduction of average daytime sleepiness,[6],up to 50%
CNCCc1ccccn1 [betahistine],H3-receptor antagonism potency,histamine H3-receptor,very low potency
CN(C)CCCSC(=N)N [dimaprit],H3-receptor antagonism potency,histamine H3-receptor,very low potency
NC(=O)C[S+]([O-])C(c1ccccc1)c1ccccc1 (stereo not shown) [modafinil],treatment of excessive daytime sleepiness,PD patients,limited success
c1ccc(C2(N3CCCCC3)CCCCC2)cc1 [phencyclidine],H3-receptor antagonism potency,histamine H3-receptor,very low potency
S=C(NC1CCCCC1)N1CCC(c2cnc[nH]2)CC1 [thioperamide],effect of levodopa on turning behaviour upon co-administration,[7],not modified
